Data from patent publication US10800741B2 (ANCUREALL PHARMACEUTICAL (SHANGHAI) CO., LTD., priority 2017, dated 2020).
Read-outs that look alike come from different tables or passages of the source.

Assays:
Assay in all cases: KINOMEscan in vitro binding to 468 labeled protein kinases
[1] = tested on: protein kinases
In short: (§1)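 Duplicate in vitro binding reactions at 1 nM, 10 nM and 1000 nM compound against a panel of 468 labelled protein kinases (KINOMEscan). Binding expressed relative to solvent control as a percentage, stronger affinity giving a lower value.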

[2] = molecular target: T1, protein kinases (Homo sapiens, UniProt Q16620); details: TRKB (NTRK2), read-out: Test compound/solvent control (%)
T1 construct: purchased Discovery X company (USA), KINOMEscan screening platform
T1 sequence (Q16620 32-822): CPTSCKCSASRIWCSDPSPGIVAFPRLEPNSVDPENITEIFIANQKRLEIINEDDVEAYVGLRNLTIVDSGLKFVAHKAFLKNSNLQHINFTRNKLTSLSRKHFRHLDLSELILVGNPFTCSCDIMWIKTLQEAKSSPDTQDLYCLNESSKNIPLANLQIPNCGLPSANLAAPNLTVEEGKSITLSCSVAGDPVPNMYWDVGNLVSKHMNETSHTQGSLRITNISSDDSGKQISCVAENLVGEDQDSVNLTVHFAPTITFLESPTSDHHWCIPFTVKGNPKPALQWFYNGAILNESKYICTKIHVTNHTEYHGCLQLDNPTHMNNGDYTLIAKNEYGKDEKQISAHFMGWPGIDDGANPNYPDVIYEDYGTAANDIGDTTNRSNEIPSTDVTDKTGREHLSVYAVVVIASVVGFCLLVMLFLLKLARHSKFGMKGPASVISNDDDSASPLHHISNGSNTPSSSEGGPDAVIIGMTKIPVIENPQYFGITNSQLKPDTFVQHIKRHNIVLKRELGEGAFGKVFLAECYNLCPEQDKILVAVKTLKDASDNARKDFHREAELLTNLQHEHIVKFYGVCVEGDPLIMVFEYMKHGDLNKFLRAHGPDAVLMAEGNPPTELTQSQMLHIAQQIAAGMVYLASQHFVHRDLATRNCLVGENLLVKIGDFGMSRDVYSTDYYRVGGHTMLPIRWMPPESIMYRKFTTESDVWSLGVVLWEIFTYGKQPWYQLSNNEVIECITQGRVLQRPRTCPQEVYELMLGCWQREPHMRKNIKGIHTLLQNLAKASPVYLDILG
In short: as §1

[3] = molecular target: T2, protein kinases (Homo sapiens, UniProt P00533, L858R/T790M); details: EGFR(L858R,T790M)
T2 construct: purchased Discovery X company (USA), KINOMEscan screening platform
In short: as §1

[4] = molecular target: T3, protein kinases (Homo sapiens, UniProt Q12866); details: MERTK, read-out: Test compound/solvent control (%)
T3 construct: purchased Discovery X company (USA), KINOMEscan screening platform
T3 sequence (Q12866 21-999): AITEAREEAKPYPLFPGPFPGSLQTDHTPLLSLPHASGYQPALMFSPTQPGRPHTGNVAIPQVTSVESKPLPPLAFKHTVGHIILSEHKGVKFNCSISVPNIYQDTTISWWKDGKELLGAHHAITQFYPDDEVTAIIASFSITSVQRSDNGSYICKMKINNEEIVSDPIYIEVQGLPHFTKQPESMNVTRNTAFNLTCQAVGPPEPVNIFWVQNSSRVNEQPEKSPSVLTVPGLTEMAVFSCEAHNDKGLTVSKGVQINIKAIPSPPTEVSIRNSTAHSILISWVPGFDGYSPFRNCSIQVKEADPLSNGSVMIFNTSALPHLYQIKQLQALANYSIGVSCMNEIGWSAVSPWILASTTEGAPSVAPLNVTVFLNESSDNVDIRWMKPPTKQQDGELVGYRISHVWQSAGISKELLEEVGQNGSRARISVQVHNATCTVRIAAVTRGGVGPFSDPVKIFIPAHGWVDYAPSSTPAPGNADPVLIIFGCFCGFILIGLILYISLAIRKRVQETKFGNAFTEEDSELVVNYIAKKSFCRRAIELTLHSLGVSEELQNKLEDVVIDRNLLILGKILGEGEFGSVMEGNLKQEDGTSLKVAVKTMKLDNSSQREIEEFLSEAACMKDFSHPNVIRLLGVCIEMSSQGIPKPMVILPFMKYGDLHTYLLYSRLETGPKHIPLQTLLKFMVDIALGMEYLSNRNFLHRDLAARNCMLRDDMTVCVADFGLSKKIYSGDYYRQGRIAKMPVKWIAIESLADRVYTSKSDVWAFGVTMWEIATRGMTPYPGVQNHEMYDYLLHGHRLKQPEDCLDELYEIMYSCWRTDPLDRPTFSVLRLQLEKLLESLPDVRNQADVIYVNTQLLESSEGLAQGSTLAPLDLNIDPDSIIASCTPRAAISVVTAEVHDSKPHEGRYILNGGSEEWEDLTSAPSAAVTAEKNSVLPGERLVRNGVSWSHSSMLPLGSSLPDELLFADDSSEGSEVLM
In short: as §1

[5] = molecular target: T4, protein kinases (Homo sapiens, UniProt P09619); details: PDGFRB, read-out: Test compound/solvent control (%)
T4 construct: purchased Discovery X company (USA), KINOMEscan screening platform
T4 sequence (P09619 33-1106): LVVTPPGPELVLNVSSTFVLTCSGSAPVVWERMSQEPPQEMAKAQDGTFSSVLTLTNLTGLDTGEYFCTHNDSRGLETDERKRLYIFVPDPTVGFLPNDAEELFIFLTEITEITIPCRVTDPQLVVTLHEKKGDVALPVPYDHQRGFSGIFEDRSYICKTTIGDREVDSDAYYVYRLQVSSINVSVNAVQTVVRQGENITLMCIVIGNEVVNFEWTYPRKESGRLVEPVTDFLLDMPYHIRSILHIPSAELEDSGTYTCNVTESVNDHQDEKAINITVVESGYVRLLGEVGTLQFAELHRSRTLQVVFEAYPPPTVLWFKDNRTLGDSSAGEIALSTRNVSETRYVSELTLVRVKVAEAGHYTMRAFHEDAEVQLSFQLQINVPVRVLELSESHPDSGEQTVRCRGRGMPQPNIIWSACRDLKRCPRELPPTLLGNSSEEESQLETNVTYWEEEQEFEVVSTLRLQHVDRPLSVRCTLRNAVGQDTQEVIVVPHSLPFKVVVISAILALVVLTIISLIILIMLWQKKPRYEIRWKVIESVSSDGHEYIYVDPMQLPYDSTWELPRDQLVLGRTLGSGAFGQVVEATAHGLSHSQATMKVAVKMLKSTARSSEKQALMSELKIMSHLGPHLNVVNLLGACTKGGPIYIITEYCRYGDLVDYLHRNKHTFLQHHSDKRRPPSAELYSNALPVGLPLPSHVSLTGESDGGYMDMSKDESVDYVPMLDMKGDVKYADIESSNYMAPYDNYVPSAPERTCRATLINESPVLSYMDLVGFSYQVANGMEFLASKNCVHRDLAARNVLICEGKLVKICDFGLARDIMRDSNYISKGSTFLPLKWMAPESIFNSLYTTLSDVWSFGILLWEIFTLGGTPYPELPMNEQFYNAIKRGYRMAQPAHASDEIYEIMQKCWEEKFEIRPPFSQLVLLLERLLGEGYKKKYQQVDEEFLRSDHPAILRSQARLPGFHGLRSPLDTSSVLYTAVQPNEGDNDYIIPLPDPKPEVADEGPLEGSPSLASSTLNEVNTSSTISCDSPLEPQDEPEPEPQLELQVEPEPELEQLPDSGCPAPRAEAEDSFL
In short: as §1

[6] = molecular target: T5, protein kinases (Homo sapiens, UniProt P00519, F317I); details: read-out: Test compound/solvent control (%); for remaining binding at 0.001 µM: 1 nM; for remaining binding at 0.01 µM: 10 nM; for remaining binding at 1 µM: 1000 nM
T5 construct: purchased Discovery X company (USA), KINOMEscan screening platform
T5 sequence (P00519 whole entry F317I): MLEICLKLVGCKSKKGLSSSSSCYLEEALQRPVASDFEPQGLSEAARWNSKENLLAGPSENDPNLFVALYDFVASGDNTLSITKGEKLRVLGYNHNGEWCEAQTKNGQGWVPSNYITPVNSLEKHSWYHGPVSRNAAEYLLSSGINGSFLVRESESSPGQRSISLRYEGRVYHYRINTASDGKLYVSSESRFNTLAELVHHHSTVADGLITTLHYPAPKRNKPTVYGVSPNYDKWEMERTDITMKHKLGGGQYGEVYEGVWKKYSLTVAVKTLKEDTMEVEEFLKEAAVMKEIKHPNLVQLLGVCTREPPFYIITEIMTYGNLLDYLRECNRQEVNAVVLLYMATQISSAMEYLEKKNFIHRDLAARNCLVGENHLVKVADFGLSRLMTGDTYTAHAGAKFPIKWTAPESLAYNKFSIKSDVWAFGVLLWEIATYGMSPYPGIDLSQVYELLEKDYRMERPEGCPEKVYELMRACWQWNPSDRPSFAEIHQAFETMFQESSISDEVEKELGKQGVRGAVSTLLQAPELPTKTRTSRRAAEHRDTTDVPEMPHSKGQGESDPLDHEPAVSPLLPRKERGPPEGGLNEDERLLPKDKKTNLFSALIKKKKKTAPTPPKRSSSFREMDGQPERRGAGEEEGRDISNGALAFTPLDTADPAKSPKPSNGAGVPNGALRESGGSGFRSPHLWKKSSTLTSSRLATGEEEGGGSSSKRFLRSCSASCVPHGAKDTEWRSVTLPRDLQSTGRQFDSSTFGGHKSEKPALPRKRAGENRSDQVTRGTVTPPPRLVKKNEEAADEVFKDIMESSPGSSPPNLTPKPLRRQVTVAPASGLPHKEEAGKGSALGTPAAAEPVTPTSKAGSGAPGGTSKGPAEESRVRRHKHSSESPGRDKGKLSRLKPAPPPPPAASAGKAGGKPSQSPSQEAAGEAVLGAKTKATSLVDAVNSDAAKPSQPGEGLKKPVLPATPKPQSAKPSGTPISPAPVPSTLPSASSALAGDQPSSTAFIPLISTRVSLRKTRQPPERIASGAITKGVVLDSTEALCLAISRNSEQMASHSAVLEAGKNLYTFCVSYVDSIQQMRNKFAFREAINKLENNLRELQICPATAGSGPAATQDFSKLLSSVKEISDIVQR
In short: as §1

[7] = molecular target: T6, protein kinases (Homo sapiens, UniProt P00533, DEL752-759); details: EGFR(S752-1759del)
T6 construct: purchased Discovery X company (USA), KINOMEscan screening platform
T6 sequence (P00533 with tags, fused parts or gaps DEL752-759): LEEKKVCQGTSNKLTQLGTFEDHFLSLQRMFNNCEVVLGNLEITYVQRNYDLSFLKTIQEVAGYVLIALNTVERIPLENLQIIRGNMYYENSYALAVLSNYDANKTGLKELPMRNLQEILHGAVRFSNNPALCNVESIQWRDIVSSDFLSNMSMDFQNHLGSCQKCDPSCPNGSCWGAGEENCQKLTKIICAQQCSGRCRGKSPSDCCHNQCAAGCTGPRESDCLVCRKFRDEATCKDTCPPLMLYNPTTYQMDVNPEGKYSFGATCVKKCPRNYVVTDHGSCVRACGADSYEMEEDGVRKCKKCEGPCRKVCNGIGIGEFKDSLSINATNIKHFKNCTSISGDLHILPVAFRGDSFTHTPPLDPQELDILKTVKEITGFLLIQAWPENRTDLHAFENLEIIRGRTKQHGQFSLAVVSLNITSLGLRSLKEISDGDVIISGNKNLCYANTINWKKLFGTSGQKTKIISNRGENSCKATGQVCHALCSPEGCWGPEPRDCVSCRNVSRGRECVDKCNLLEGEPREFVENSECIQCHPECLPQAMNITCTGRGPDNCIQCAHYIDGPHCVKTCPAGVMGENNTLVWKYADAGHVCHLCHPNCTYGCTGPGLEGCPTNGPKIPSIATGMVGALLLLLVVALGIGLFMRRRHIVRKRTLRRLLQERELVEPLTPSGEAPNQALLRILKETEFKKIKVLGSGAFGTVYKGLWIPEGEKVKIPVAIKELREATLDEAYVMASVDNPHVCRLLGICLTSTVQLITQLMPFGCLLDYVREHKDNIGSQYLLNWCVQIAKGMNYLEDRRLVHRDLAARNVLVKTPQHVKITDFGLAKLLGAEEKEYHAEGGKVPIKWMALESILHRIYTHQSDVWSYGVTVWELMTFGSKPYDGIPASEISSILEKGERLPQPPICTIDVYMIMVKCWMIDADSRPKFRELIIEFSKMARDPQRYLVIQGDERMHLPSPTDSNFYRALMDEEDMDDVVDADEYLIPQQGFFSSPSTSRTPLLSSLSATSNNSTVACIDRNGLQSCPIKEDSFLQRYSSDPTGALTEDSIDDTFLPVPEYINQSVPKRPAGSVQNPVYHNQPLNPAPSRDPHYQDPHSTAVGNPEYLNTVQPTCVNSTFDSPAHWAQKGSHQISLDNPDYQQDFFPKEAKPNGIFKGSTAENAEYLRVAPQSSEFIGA
In short: as §1

[8] = molecular target: T7, protein kinases (Homo sapiens, UniProt P10721, L576P); details: KIT(L576P), read-out: Test compound/solvent control (%)
T7 construct: purchased Discovery X company (USA), KINOMEscan screening platform
T7 sequence (P10721 26-976 L576P): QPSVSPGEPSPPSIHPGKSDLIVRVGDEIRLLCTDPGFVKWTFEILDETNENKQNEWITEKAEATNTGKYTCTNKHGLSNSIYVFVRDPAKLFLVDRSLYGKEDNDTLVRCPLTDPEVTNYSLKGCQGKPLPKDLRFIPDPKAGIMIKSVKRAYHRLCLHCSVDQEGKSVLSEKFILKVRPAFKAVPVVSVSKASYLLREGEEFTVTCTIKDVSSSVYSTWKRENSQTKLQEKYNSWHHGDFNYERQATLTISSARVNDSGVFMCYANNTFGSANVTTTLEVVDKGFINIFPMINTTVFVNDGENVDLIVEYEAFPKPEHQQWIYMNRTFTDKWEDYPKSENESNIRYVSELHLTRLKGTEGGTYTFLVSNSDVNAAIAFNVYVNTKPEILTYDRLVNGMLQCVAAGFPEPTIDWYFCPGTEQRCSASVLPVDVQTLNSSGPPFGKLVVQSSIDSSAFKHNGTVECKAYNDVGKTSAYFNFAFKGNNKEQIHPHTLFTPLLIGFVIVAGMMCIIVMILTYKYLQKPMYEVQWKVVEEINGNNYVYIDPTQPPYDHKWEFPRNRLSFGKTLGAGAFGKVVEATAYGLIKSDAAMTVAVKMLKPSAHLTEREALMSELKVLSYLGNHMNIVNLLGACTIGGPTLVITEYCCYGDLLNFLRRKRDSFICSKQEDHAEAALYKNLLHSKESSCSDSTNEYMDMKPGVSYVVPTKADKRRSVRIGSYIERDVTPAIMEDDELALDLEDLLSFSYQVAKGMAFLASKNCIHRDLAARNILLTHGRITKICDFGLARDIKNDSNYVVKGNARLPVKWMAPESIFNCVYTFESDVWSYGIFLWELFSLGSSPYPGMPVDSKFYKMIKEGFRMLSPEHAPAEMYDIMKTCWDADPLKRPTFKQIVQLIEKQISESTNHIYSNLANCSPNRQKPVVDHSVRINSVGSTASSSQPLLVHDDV
In short: as §1

With `COCCOc1cc2nccc(Oc3ccc(NC(=O)Nc4cc(C(C)(C)C)n[nH]4)c(Cl)c3)c2cc1NC(C)=O` [Compound 66, N-[4-{4-[3-(5-tert-butyl-2H-pyrazol-3-yl)-ureido]-3-chloro-phenoxy}-7-(2-methoxy-ethoxy)-quinolin-6-yl]-acetamide] the “Test compound/solvent control (%)” value ([1]; EGFR(L747-E749del, A750P), 1 nM) was 92%, the “Test compound/solvent control (%)” value ([1]; EGFR(L747-E749del, A750P), 10 nM) was 11% and the “Test compound/solvent control (%)” value ([1]; EGFR(L747-E749del, A750P), 1000 nM) was 0%. For the same compound, the “Test compound/solvent control (%)” value ([1]; EGFR(L747-S752del, P753S), 1 nM) was 67%, the “Test compound/solvent control (%)” value ([1]; EGFR(L747-S752del, P753S), 10 nM) was 16% and the “Test compound/solvent control (%)” value ([1]; EGFR(L747-S752del, P753S), 1000 nM) was 1.6%. For the same compound, the “Test compound/solvent control (%)” value ([1]; EGFR(L747-T751del, Sins), 1 nM) was 68%, the “Test compound/solvent control (%)” value ([1]; EGFR(L747-T751del, Sins), 10 nM) was 11% and the “Test compound/solvent control (%)” value ([1]; EGFR(L747-T751del, Sins), 1000 nM) was 2.7%. It also gave a remaining binding at 0.001 µM ([2]; 1 nM) of 65%, a remaining binding at 0.01 µM ([2]; 10 nM) of 12% and a remaining binding at 1 µM ([2]; 1000 nM) of 0.35%. The “Test compound/solvent control (%)” value ([3]; 1 nM) was 64%, the “Test compound/solvent control (%)” value ([3]; 10 nM) was 21% and the “Test compound/solvent control (%)” value ([3]; 1000 nM) was 0.7%. The remaining binding at 0.001 µM ([4]; 1 nM) was 57%, the remaining binding at 0.01 µM ([4]; 10 nM) was 4.1% and the remaining binding at 1 µM ([4]; 1000 nM) was 0.65%. The remaining binding at 0.001 µM ([5]; 1 nM) was 81%, the remaining binding at 0.01 µM ([5]; 10 nM) was 6.2% and the remaining binding at 1 µM ([5]; 1000 nM) was 0%. The remaining binding at 0.001 µM ([6]; ABL1(F317I)-phosphorylated) was 100%, the remaining binding at 0.01 µM ([6]; ABL1(F317I)-phosphorylated) was 31% and the remaining binding at 1 µM ([6]; ABL1(F317I)-phosphorylated) was 15%. For the same compound, the remaining binding at 0.001 µM ([6]; ABL1(F317I)-unphosphorylated) was 83%, the remaining binding at 0.01 µM ([6]; ABL1(F317I)-unphosphorylated) was 17% and the remaining binding at 1 µM ([6]; ABL1(F317I)-unphosphorylated) was 0.25%. The “Test compound/solvent control (%)” value ([7]; 1 nM) was 90%, the “Test compound/solvent control (%)” value ([7]; 10 nM) was 29% and the “Test compound/solvent control (%)” value ([7]; 1000 nM) was 0%. It also gave a remaining binding at 0.001 µM ([8]; 1 nM) of 95%, a remaining binding at 0.01 µM ([8]; 10 nM) of 32% and a remaining binding at 1 µM ([8]; 1000 nM) of 0%.
